Reference: PubChem BioAssay (NCI)
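Protocol summary: plate cells (96-well), add compound at 5 concentrations, incubate 48 h, interpolate endpoints linearly. TGI denotes the concentration required for complete inhibition of growth.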

Assays:
Assay in all cases: NCI anticancer screen, dose series, 48 h
[1] = tested on: CCRF-CEM leukemia
[2] = tested on: DU-145 prostate
[3] = tested on: EKVX NSCLC
[4] = tested on: SF-295 CNS
[5] = tested on: SK-MEL-5 melanoma
[6] = tested on: UACC-257 melanoma
[7] = tested on: ACHN renal
[8] = tested on: HCT-15 colon
[9] = tested on: SN12C renal
[10] = tested on: HS 578T breast
[11] = tested on: PC-3 prostate
[12] = tested on: MDA-N
[13] = tested on: U251 CNS
[14] = tested on: SK-MEL-2 melanoma
[15] = tested on: SW-620 colon
[16] = tested on: HL-60(TB) leukemia
[17] = tested on: M14 melanoma
[18] = tested on: OVCAR-3 ovarian
[19] = tested on: RPMI-8226 leukemia
[20] = tested on: HT29 colon
[21] = tested on: MOLT-4 leukemia
[22] = tested on: BT-549 breast
[23] = tested on: NCI/ADR-RES ovarian
[24] = tested on: SR leukemia
[25] = tested on: A549 NSCLC
[26] = tested on: OVCAR-8 ovarian
[27] = tested on: TK-10 renal
[28] = tested on: NCI-H23 lung
[29] = tested on: K-562 leukemia
[30] = tested on: NCI-H226 lung
[31] = tested on: CAKI-1 renal
[32] = tested on: RXF 393 renal
[33] = tested on: KM12 colon
[34] = tested on: SNB-19 CNS
[35] = tested on: HCT-116 colon
[36] = tested on: OVCAR-5 ovarian
[37] = tested on: COLO 205 colon
[38] = tested on: A498 renal
[39] = tested on: HOP-62 NSCLC
[40] = tested on: IGROV1 ovarian
[41] = tested on: NCI-H522 lung
[42] = tested on: SF-539 CNS
[43] = tested on: HOP-92 NSCLC
[44] = tested on: OVCAR-4 ovarian
[45] = tested on: MDA-MB-435
[46] = tested on: SK-OV-3 ovarian
[47] = tested on: SF-268 CNS
[48] = tested on: MALME-3M melanoma
[49] = tested on: SK-MEL-28 melanoma
[50] = tested on: 786-0 renal
[51] = tested on: MCF7 breast
[52] = tested on: MDA-MB-231 breast
[53] = tested on: LOX IMVI melanoma
[54] = tested on: HCC-2998 colon
[55] = tested on: UACC-62 melanoma
[56] = tested on: T-47D breast
[57] = tested on: NCI-H460 lung
[58] = tested on: SNB-75 CNS
[59] = tested on: UO-31 renal

## CC(=O)N1C=Cc2c(c(C)c3c([nH]c4ccccc43)c2C)C1
[1]
  TGI: > 100 µM
[2]
  TGI: 26.6 µM
[3]
  TGI: 8.13 µM
[4]
  TGI: 23.8 µM
[5]
  TGI: 33.5 µM
[6]
  TGI: 29.6 µM
[7]
  TGI: 11.3 µM
[8]
  TGI: 4.99 µM
[9]
  TGI: 20.3 µM
[10]
  TGI: 15.9 µM
[11]
  TGI: 19.6 µM
[12]
  TGI: 27.6 µM
[13]
  TGI: 19.4 µM
[14]
  TGI: 27.2 µM
[15]
  TGI: 7.47 µM
[16]
  TGI: > 100 µM
[17]
  TGI: 20.9 µM
[18]
  TGI: 4.55 µM
[19]
  TGI: 50.6 µM
[20]
  TGI: 18 µM
[21]
  TGI: > 100 µM
[22]
  TGI: 14.6 µM
[23]
  TGI: 8.41 µM
[24]
  TGI: > 100 µM
[25]
  TGI: 24.2 µM
[26]
  TGI: 29.1 µM
[27]
  TGI: 24.5 µM
[28]
  TGI: 20.4 µM
[29]
  TGI: > 100 µM
[30]
  TGI: 31.9 µM
[31]
  TGI: 25.4 µM
[32]
  TGI: 37.4 µM
[33]
  TGI: 12 µM
[34]
  TGI: 28.7 µM
[35]
  TGI: 3.21 µM
[36]
  TGI: 24 µM
[37]
  TGI: 19.1 µM
[38]
  TGI: 28.3 µM
[39]
  TGI: 17.5 µM
[40]
  TGI: 17.9 µM
[41]
  TGI: 29.7 µM
[42]
  TGI: 18.8 µM
[43]
  TGI: 20.8 µM
[44]
  TGI: 5.17 µM
[45]
  TGI: 27.4 µM
[46]
  TGI: 27 µM
[47]
  TGI: 32.6 µM
[48]
  TGI: 23.1 µM
[49]
  TGI: 31.8 µM
[50]
  TGI: 6.73 µM
[51]
  TGI: 18.5 µM
[52]
  TGI: 9.34 µM
[53]
  TGI: 16.8 µM

## O=C1Cc2c(-c3cccs3)cc(-c3ccccc3)nc2-c2ccccc2N1
[54]
  TGI: > 100 µM
[1]
  TGI: > 100 µM
[2]
  TGI: > 100 µM
[3]
  TGI: > 100 µM
[4]
  TGI: > 100 µM
[5]
  TGI: > 100 µM
[6]
  TGI: > 100 µM
[7]
  TGI: > 100 µM
[8]
  TGI: > 100 µM
[9]
  TGI: > 100 µM
[10]
  TGI: 17.2 µM
[11]
  TGI: > 100 µM
[55]
  TGI: > 100 µM
[12]
  TGI: > 100 µM
[14]
  TGI: > 100 µM
[15]
  TGI: > 100 µM
[17]
  TGI: > 100 µM
[18]
  TGI: > 100 µM
[19]
  TGI: > 100 µM
[20]
  TGI: 43.9 µM
[21]
  TGI: > 100 µM
[56]
  TGI: > 100 µM
[22]
  TGI: > 100 µM
[23]
  TGI: > 100 µM
[24]
  TGI: > 100 µM
[25]
  TGI: > 100 µM
[26]
  TGI: 17.1 µM
[27]
  TGI: > 100 µM
[28]
  TGI: > 100 µM
[29]
  TGI: > 100 µM
[30]
  TGI: > 100 µM
[31]
  TGI: > 100 µM
[32]
  TGI: > 100 µM
[33]
  TGI: > 100 µM
[34]
  TGI: > 100 µM
[35]
  TGI: > 100 µM
[36]
  TGI: > 100 µM
[37]
  TGI: > 100 µM
[38]
  TGI: > 100 µM
[57]
  TGI: > 100 µM
[39]
  TGI: > 100 µM
[40]
  TGI: 71.5 µM
[41]
  TGI: > 100 µM
[42]
  TGI: > 100 µM
[43]
  TGI: > 100 µM
[44]
  TGI: > 100 µM
[45]
  TGI: > 100 µM
[46]
  TGI: > 100 µM
[47]
  TGI: 56.8 µM
[48]
  TGI: 45.7 µM
[49]
  TGI: > 100 µM
[58]
  TGI: 41.9 µM
[50]
  TGI: > 100 µM
[59]
  TGI: > 100 µM
[51]
  TGI: > 100 µM
[52]
  TGI: > 100 µM
[53]
  TGI: > 100 µM
